Reference: PubChem BioAssay (NCI)
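Five compound concentrations were applied to cells in 96-well plates for 48 hours; endpoints were derived by simple linear interpolation of the resulting dose-response curve. GI50: concentration for 50% inhibition of growth. TGI marks complete inhibition of growth.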

Experiments:
Assay in all cases: NCI-60 cell line screen, 48 h
HS 578T breast = tested on: HS 578T breast
SF-539 CNS = tested on: SF-539 CNS
OVCAR-4 ovarian = tested on: OVCAR-4 ovarian
SF-268 CNS = tested on: SF-268 CNS
COLO 205 colon = tested on: COLO 205 colon
SNB-19 CNS = tested on: SNB-19 CNS
SF-295 CNS = tested on: SF-295 CNS
HCC-2998 colon = tested on: HCC-2998 colon

In the case of `O=C(O)CSCC(=O)c1ccccc1`, the TGI (HS 578T breast) is reported as > 100 µM, the TGI (SF-539 CNS) is reported as > 100 µM and the TGI (OVCAR-4 ovarian) is reported as > 100 µM. The TGI (SF-268 CNS) was > 100 µM, the TGI (COLO 205 colon) was > 100 µM and the TGI (SNB-19 CNS) was > 100 µM. The TGI (SF-295 CNS) was > 100 µM.
In the case of `O=C(O)C1CCCN1Cc1c[nH]c2ccccc12` (stereo unspecified), the TGI (HS 578T breast) is reported as > 100 µM, the TGI (SF-539 CNS) is reported as > 100 µM and the TGI (OVCAR-4 ovarian) is reported as > 100 µM. For the same molecule, the TGI (SF-268 CNS) was > 100 µM, the TGI (COLO 205 colon) was > 100 µM and the TGI (SNB-19 CNS) was > 100 µM. For the same molecule, the TGI (SF-295 CNS) was > 100 µM.
`CCOC(=O)c1sc2ncn(Cc3cccc(Cl)c3)c(=O)c2c1C` gave a GI50 (HS 578T breast) of 17.5 µM, a TGI (HS 578T breast) of 31.3 µM and a GI50 (SF-539 CNS) of 19.3 µM. The TGI (SF-539 CNS) was 33.4 µM, the GI50 (OVCAR-4 ovarian) was 16.2 µM and the TGI (OVCAR-4 ovarian) was 29.7 µM. For the same molecule, the GI50 (SF-268 CNS) was 15.1 µM, the TGI (SF-268 CNS) was 28.4 µM and the GI50 (COLO 205 colon) was 20.7 µM. It also gave a TGI (COLO 205 colon) of 36.6 µM, a GI50 (SNB-19 CNS) of 16.3 µM and a TGI (SNB-19 CNS) of 29.8 µM. The GI50 (SF-295 CNS) was 12 µM and the TGI (SF-295 CNS) was 24.4 µM.
`CN(C)CCCNC(=O)c1cc(NC(=O)c2cc(NC(=O)CCCN3c4ccccc4C=Cc4ccccc43)cn2C)cn1C` showed a GI50 (HS 578T breast) of 4.87 µM, a TGI (HS 578T breast) of 40 µM and a GI50 (SF-539 CNS) of 5.57 µM. For the same molecule, the TGI (SF-539 CNS) was 33.5 µM, the GI50 (HCC-2998 colon) was 2.17 µM and the TGI (HCC-2998 colon) was 4.03 µM. For the same molecule, the GI50 (OVCAR-4 ovarian) was 23.2 µM, the TGI (OVCAR-4 ovarian) was 97.4 µM and the GI50 (SF-268 CNS) was 5.06 µM. For the same molecule, the TGI (SF-268 CNS) was > 100 µM, the GI50 (SNB-19 CNS) was 6.32 µM and the TGI (SNB-19 CNS) was > 100 µM. It also gave a GI50 (SF-295 CNS) of 2.07 µM and a TGI (SF-295 CNS) of 5.38 µM.
For `CC(=O)C(C(=N)C#N)C(=O)Nc1ccccc1` (stereo unspecified), the TGI (HS 578T breast) was > 100 µM, the TGI (SF-539 CNS) was > 100 µM and the TGI (OVCAR-4 ovarian) was > 100 µM. The TGI (SF-268 CNS) was > 100 µM, the TGI (COLO 205 colon) was > 100 µM and the TGI (SNB-19 CNS) was > 100 µM. The TGI (SF-295 CNS) was > 100 µM.
In the case of `O=C(Nc1cccc(C2=NCCN2)c1)c1ccc(OCCCOc2ccc(C(=O)Nc3cccc(C4=NCCN4)c3)cc2)cc1`, the GI50 (HS 578T breast) is reported as 2.55 µM, the TGI (HS 578T breast) is reported as 6.6 µM and the GI50 (SNB-19 CNS) is reported as 2.69 µM. For the same molecule, the TGI (SNB-19 CNS) was > 100 µM, the GI50 (SF-295 CNS) was 3.29 µM and the TGI (SF-295 CNS) was > 100 µM.
Work on `CC1=C(C(=O)Nc2ccc(F)c(Cl)c2)C(c2cccc(O)c2)NC(=S)N1` (stereo unspecified) yielded a GI50 (HS 578T breast) of 13.7 µM, a TGI (HS 578T breast) of 47 µM and a GI50 (SF-268 CNS) of 17.8 µM. For the same molecule, the TGI (SF-268 CNS) was > 50 µM, the GI50 (COLO 205 colon) was 22.2 µM and the TGI (COLO 205 colon) was > 50 µM. For the same molecule, the GI50 (SNB-19 CNS) was > 50 µM, the TGI (SNB-19 CNS) was > 50 µM and the GI50 (SF-295 CNS) was 18 µM. The TGI (SF-295 CNS) was > 50 µM.
Molecule `NCCCn1c2c(c3ccccc3c1=O)C(=O)c1cc3c(cc1-2)OCO3` has a GI50 (HS 578T breast) of 0.687 µM, a TGI (HS 578T breast) of 4.31 µM and a GI50 (SF-539 CNS) of 0.242 µM. The TGI (SF-539 CNS) was 1.31 µM, the GI50 (HCC-2998 colon) was < 0.01 µM and the TGI (HCC-2998 colon) was 1.11 µM. For the same molecule, the GI50 (SF-268 CNS) was 1.51 µM, the TGI (SF-268 CNS) was 15 µM and the GI50 (COLO 205 colon) was 0.121 µM. For the same molecule, the TGI (COLO 205 colon) was 1.98 µM, the GI50 (SNB-19 CNS) was 0.159 µM and the TGI (SNB-19 CNS) was 1.62 µM. For the same molecule, the GI50 (SF-295 CNS) was 0.297 µM and the TGI (SF-295 CNS) was 1.74 µM.
Work on `COC(=O)C/C(C)=C/[C@@H](O)[C@H]1O[C@@H]2CC/C(Cl)=C/C/C=C(/C)[C@H](OC(C)=O)CC(=O)O[C@@H]1C2` yielded a GI50 (HS 578T breast) of 0.546 µM, a TGI (HS 578T breast) of 2.14 µM and a GI50 (SF-539 CNS) of 1.32 µM. For the same molecule, the TGI (SF-539 CNS) was 7.95 µM, the GI50 (SF-268 CNS) was 1.07 µM and the TGI (SF-268 CNS) was 4.61 µM. For the same molecule, the GI50 (COLO 205 colon) was 1.72 µM, the TGI (COLO 205 colon) was 7.51 µM and the GI50 (SNB-19 CNS) was 2.28 µM. It also gave a TGI (SNB-19 CNS) of 12.7 µM.
In the case of `CC(C)SC1SCC2C(=O)N(C)C3(CC3C)C(=O)OCC(NC(=O)c3nc4ccccc4cc3O)C(=O)NC(C)C(=O)N(C)C1C(=O)N(C)C1(CC1C)C(=O)OCC(NC(=O)c1nc3ccccc3cc1O)C(=O)NC(C)C(=O)N2C` (stereo unspecified), the TGI (SF-539 CNS) is reported as < 0.0001 µM, the TGI (HCC-2998 colon) is reported as < 0.0001 µM and the TGI (OVCAR-4 ovarian) is reported as < 0.0001 µM. For the same molecule, the TGI (SF-268 CNS) was 0.00129 µM, the TGI (COLO 205 colon) was < 0.0001 µM and the TGI (SF-295 CNS) was 0.00809 µM.
With `N#Cc1c2ccccc2c2nnc3cc(C(F)(F)F)ccc3n12` the GI50 (OVCAR-4 ovarian) was 55.5 µM, the TGI (OVCAR-4 ovarian) was > 100 µM and the GI50 (SF-268 CNS) was 19.2 µM. For the same molecule, the TGI (SF-268 CNS) was > 100 µM, the GI50 (COLO 205 colon) was 37.4 µM and the TGI (COLO 205 colon) was > 100 µM. The GI50 (SNB-19 CNS) was > 100 µM, the TGI (SNB-19 CNS) was > 100 µM and the GI50 (SF-295 CNS) was 96.3 µM. The TGI (SF-295 CNS) was > 100 µM.
For `COc1cc2c3c(n(CCCO)c(=O)c2cc1OC)-c1cc2c(cc1C3=O)OCO2`, the GI50 (HS 578T breast) was 52 µM, the TGI (HS 578T breast) was > 100 µM and the TGI (SF-539 CNS) was 6.79 µM. The GI50 (OVCAR-4 ovarian) was > 87.3 µM, the TGI (OVCAR-4 ovarian) was > 100 µM and the GI50 (SF-268 CNS) was 9.04 µM. The TGI (SF-268 CNS) was > 100 µM, the GI50 (COLO 205 colon) was 26.4 µM and the TGI (COLO 205 colon) was 98 µM. The GI50 (SNB-19 CNS) was 14.5 µM, the TGI (SNB-19 CNS) was > 100 µM and the GI50 (SF-295 CNS) was 1.17 µM. For the same molecule, the TGI (SF-295 CNS) was > 48.3 µM.
With `Nc1nc(SCC(=O)O)[nH]c(=O)c1N` the TGI (HS 578T breast) was > 100 µM, the TGI (SF-539 CNS) was > 100 µM and the TGI (OVCAR-4 ovarian) was > 100 µM. For the same molecule, the TGI (SF-268 CNS) was > 100 µM, the TGI (COLO 205 colon) was > 100 µM and the TGI (SNB-19 CNS) was > 100 µM. The TGI (SF-295 CNS) was > 100 µM.
For `O=C(O)C(Cc1ccccc1-c1ccccc1)C(=O)O`, the TGI (HS 578T breast) was > 100 µM, the TGI (SF-539 CNS) was > 100 µM and the TGI (OVCAR-4 ovarian) was > 100 µM. The TGI (SF-268 CNS) was > 100 µM, the TGI (COLO 205 colon) was > 100 µM and the TGI (SNB-19 CNS) was > 100 µM. The TGI (SF-295 CNS) was > 100 µM.
Work on `COC(=O)/C=C1\SC(=Nc2ccc(C(F)(F)F)cc2)N(CCc2c[nH]c3ccccc23)C1=O` yielded a GI50 (SF-539 CNS) of 1.62 µM, a TGI (SF-539 CNS) of 3.02 µM and a GI50 (HCC-2998 colon) of 1.86 µM. The TGI (HCC-2998 colon) was 3.43 µM, the GI50 (OVCAR-4 ovarian) was 1.61 µM and the TGI (OVCAR-4 ovarian) was 3.05 µM. For the same molecule, the GI50 (SF-268 CNS) was 1.78 µM, the TGI (SF-268 CNS) was 3.67 µM and the GI50 (COLO 205 colon) was 1.88 µM. It also gave a TGI (COLO 205 colon) of 3.65 µM, a GI50 (SNB-19 CNS) of 1.78 µM and a TGI (SNB-19 CNS) of 3.45 µM. The GI50 (SF-295 CNS) was 1.57 µM and the TGI (SF-295 CNS) was 2.95 µM.
In the case of `CCOC(=O)c1[nH]c2cccc3c2c1CC(Br)C3=O` (stereo unspecified), the TGI (SF-539 CNS) is reported as 30.4 µM, the TGI (HCC-2998 colon) is reported as 29.8 µM and the TGI (SF-268 CNS) is reported as 32.9 µM. It also gave a TGI (COLO 205 colon) of 27.2 µM, a TGI (SNB-19 CNS) of 30.7 µM and a TGI (SF-295 CNS) of 32.6 µM.
`COc1ccc(-c2nc3sccn3c2/C=C/C(=O)c2cc(OC)c(OC)c(OC)c2)cc1OC` was tested, and the GI50 (SF-539 CNS) was 1.78 µM, the TGI (SF-539 CNS) was 3.74 µM and the GI50 (HCC-2998 colon) was 2.72 µM. It also gave a TGI (HCC-2998 colon) of 4.79 µM, a GI50 (OVCAR-4 ovarian) of 2.85 µM and a TGI (OVCAR-4 ovarian) of 77.2 µM. For the same molecule, the GI50 (SF-268 CNS) was 2.36 µM, the TGI (SF-268 CNS) was 6.44 µM and the GI50 (COLO 205 colon) was 2.41 µM. For the same molecule, the TGI (COLO 205 colon) was 5.98 µM, the GI50 (SNB-19 CNS) was 2.45 µM and the TGI (SNB-19 CNS) was 6.3 µM. The GI50 (SF-295 CNS) was 3.08 µM and the TGI (SF-295 CNS) was 24 µM.
